How the values were obtained:
[1] = tested on: adenylyl cyclase activity from Trypansoma brucei cell lysates; experiment: adenylyl cyclase assay on whole cell lysate of the bloodstream form; type: biochemical, Trypanosoma brucei; conditions: 15 mM MgCl2, 1 mM ATP, pH 7.5, 30° C.; for effect on adenylyl cyclase activity in whole cell lysate: any concentration
Protocol: The effect of these compounds on lysate activity was tested using whole cell lysate of the bloodstream form. Briefly, 5×10^6 cells were sonicated (on ice) in a lysis buffer consisting of 2 mM Tris-HCl, 15 mM KCl, 1 mM EDTA, 1 mM 2-mercaptoethanol, 100 μM PMSF, and 1 μg/mL aprotinin/leupeptin. Adenylyl cyclase assays were conducted using 20 μL of lysate/assay in the presence of 15 mM MgCl2 and 1 mM ATP in 50 mM Tris-HCl at pH=7.5 at 30° C. KH7.14 and KH7.15 had no effect on activity at any concentration while 100 μM KH7 stimulated AC activity in the whole cell lysate between 1.5-2 fold (see FIG. 2). The observation that KH7 prevents growth of bloodstream form cells in vitro via activation of adenylyl cyclase is consistent with the idea that the cAMP pathway controls the cell cycle.

human sAC [2] = molecular target: T1, human sAC (Homo sapiens, UniProt Q96PN6); experiment: in vivo cAMP accumulation assay, 4-4 cells (hsACt stably transfected into 293T) + IBMX; type: cell-based; conditions: 4-4, Basal column
T1 construct: made in house
T1 sequence (Q96PN6 1-469 limits assumed): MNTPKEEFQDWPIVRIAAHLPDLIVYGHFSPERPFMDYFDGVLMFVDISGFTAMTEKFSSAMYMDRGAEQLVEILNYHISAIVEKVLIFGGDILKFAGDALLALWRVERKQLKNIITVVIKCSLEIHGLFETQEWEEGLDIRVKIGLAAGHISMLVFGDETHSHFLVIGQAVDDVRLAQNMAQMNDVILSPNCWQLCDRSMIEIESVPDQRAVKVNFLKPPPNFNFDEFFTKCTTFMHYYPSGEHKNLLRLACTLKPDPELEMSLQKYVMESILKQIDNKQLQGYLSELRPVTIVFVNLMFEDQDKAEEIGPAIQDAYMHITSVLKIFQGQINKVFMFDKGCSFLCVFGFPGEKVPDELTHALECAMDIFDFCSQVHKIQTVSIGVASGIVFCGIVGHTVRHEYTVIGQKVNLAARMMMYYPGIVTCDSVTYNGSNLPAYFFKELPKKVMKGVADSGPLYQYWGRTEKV
Protocol: 293T cells or 4-4 […] stably transfected into 293T) were grown in 75 cm2 Tissue Culture Flasks until nearly confluent using DMEM (10% FBS, 1% L-Glutamine, 1% Penicillin/Streptomycin). Cells were released from the flask with 3 ml of trypsin followed by addition of 7 ml of DMEM to neutralize the trypsin. Cells were mixed by pipetting up and down with 10 ml serological pipette. To a 3 ml aliquot of the cell mixture, 6 ml of DMEM (prewarmed to 37° C.) was added followed by thorough mixing by picking up the entire 9 mls using a repeat pipettor, and slowly pipetting out against the wall of container. This was repeated this ten times to ensure the mixture in homogenous. 100 μL of cells were then added to each pre-siliconized 1.7 ml Eppindorf tubes (Costar #3207) followed by a 60 min incubation at 37° C. and 5% CO2. This incubation was performed in 20-tube, round, floating racks (VWR #60986-100), which enable a quick transfer of the samples to a water bath, and the ability to mix several samples simultaneously. Following the incubation, 1 μL of the compound in DMSO was added (or just DMSO for controls). The cells were mixed before and after adding the compound, by a brief (and light) vortexing. The compounds were added while the cells were in the 37° C. water bath, followed by a 10 min incubation at 37° C. and 5% CO2. […] The 4-4 cells receive the IBMX to a final concentration of 500 μM IBMX. […]

[3] = tested on: endogenous transmembrane adenylyl cyclases; experiment: in vivo cAMP accumulation assay, 293T cells + IBMX and Forskolin; type: cell-based, human; conditions: 293T + FSK column
Protocol: 293T cells or 4-4 cells (hsACt stably transfected into 293T) were grown in 75 cm2 Tissue Culture Flasks until nearly confluent using DMEM (10% FBS, 1% L-Glutamine, 1% Penicillin/Streptomycin). Cells were released from the flask with 3 ml of trypsin followed by addition of 7 ml of DMEM to neutralize the trypsin. Cells were mixed by pipetting up and down with 10 ml serological pipette. To a 3 ml aliquot of the cell mixture, 6 ml of DMEM (prewarmed to 37° C.) was added followed by thorough mixing by picking up the entire 9 mls using a repeat pipettor, and slowly pipetting out against the wall of container. This was repeated this ten times to ensure the mixture in homogenous. 100 μL of cells were then added to each pre-siliconized 1.7 ml Eppindorf tubes (Costar #3207) followed by a 60 min incubation at 37° C. and 5% CO2. This incubation was performed in 20-tube, round, floating racks (VWR #60986-100), which enable a quick transfer of the samples to a water bath, and the ability to mix several samples simultaneously. Following the incubation, 1 μL of the compound in DMSO was added (or just DMSO for controls). […] Following a 10 min incubation at room temperature, 30 μL of each sample was added to 70 μL of 0.1 N HCl and the cAMP levels were measured using the protocol for the Direct Cyclic AMP Kit (Assay Designs, Inc. # 901-066). […]

human sAC [4] = molecular target: T1, human sAC; experiment: in vitro adenylyl cyclase assay with purified human sAC protein; type: biochemical; conditions: 100 μM of compound; calcium and bicarbonate stimulated; activation instead of inhibition
Protocol: Purified human sAC protein was used in an in vitro adenylyl cyclase assay. Purification of the protein is described in detail in Litvin et al. 2003. […] This paper also describes the general conditions for a sAC cyclase assay. The specific conditions for the in vitro assay are as follows.
An aliquot of the master mixture was added to the purified human sAC. The assay mixture also included the indicated concentration of KH compound, or an equivalent volume of vehicle (i.e., DMSO) as control. The reaction was started by adding 5 mM ATP (total assay volume=100 μL). […] Stimulated assay conditions involve adding 40 mM bicarbonate and 5 mM CaCl2 to the above master mixture.
Cyclic AMP levels were measured in each sample using the Correlate-EIA Direct Cyclic AMP assay kit from Assay Designs as per manufacturers instructions.

Candida = experiment: morphological transition essential for pathogenesis, Candida; type: cell-based
Cryptococcus = experiment: morphological transition essential for pathogenesis, Cryptococcus; type: cell-based

O=C(CSc1nc2ccccc2[nH]1)N/N=C/c1ccccn1 [KH7.14]
effect on adenylyl cyclase activity in whole cell lysate [1]: no effect

COc1cc(/C=N/NC(=O)CSc2nc3ccccc3[nH]2)ccc1O [KH7.15]
effect on adenylyl cyclase activity in whole cell lysate [1]: no effect

C/C(=N\NC(=O)CSc1nc2ccccc2[nH]1)c1ccccc1 [KH7.108]
remark on cellular toxicity, 4-4 cells (human sAC [2]): may be cellular toxicity
remark on cellular toxicity, 293T cells [3]: may be cellular toxicity

Cc1ccc(Cn2c(SCC(=O)N/N=C/c3ccncc3)nc3ccccc32)cc1 [KH7.142]
Activation, printed in column % Inhibition (100 μM), stimulated human sAC (human sAC [4]): Activation @ 100

CC(Sc1nc2ccccc2[nH]1)C(=O)N/N=C/c1cc(Br)ccc1O (centres unmarked) [KH7]
stimulation of AC activity in the whole cell lysate ([1]; 100 μM): 1.5-2 fold
morphological transition essential for pathogenesis (Candida): blocked
morphological transition essential for pathogenesis (Cryptococcus): blocked

Reference: patent US9095578B2, “Adenylyl cyclases as novel targets for the treatment of infection by eukaryotic pathogens” (CORNELL RESEARCH FOUNDATION, INC., priority 2007, dated 2015)
